# In patent US9839642B2, “Beta-tetrazolyl-propionic acids as metallo-beta-lactamase inhibitors” (priority 2014, dated 2017):
# Like-named read-outs stand apart in the source and are kept apart here.
# What was measured:
# IMP-1 = IMP-1 (Serratia marcescens, UniProt P52699); assay: Enzyme activity: determination of IC50, fluorescence assay with CCF2-FA substrate; assay type: biochemical; settings: CCF2-FA 1.25 μM, 2 hours at 25° C., read-out: IMP1 IC50
# Method in brief: (§1)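 Read-out: fluorescence, ex 405 nm / em 460 nm, after 2 h at 25° C with 1.25 μM CCF2-FA. Buffer 100 mM KH2PO4 pH 7, 0.005% Tween-20, 10 μM ZnSO4; enzyme 1 pM NDM-1, 2 pM IMP-1, 30 pM VIM-1. IC50 by 4-parameter fit.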
# NDM-1 = NDM-1 (Klebsiella pneumoniae, UniProt C7C422); assay: as above; assay type: biochemical; settings: CCF2-FA 1.25 μM, 2 hours at 25° C.
# Method in brief: as §1
# VIM-1 = VIM-1 (Pseudomonas aeruginosa, UniProt A0A0F7KYQ8); assay: as above; assay type: biochemical; settings: CCF2-FA 1.25 μM, 2 hours at 25° C., read-out: VIM1 IC50
# Method in brief: as §1
# [1] = test system: Klebsiella pneumoniae expressing VIM-1 (IHMA599644); assay: Antibiotic potentiation activity: synergistic concentration (MITC95) with imipenem, growth by OD600; assay type: cell-based
# Method in brief: (§2)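 Strains grown overnight at 35° C, resuspended in saline, diluted 1:100 into 1.1×CAMHB; imipenem at 1 μg/ml or 4 μg/ml with test compound 200 μM to 0.195 μM. Incubated 22 hours to 24 hours at 35° C, OD600 read; MITC95 is lowest compound concentration inhibiting 95% of growth.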
# [2] = test system: Serratia marcescens expressing IMP-1 (CL5741); assay: as above; assay type: cell-based
# Method in brief: as §2
# [3] = test system: Escherichia coli expressing NDM-1 (CLB30005); assay: as above; assay type: cell-based
# Method in brief: as §2
# [4] = enzyme 1 pM, read-out: NDM1 IC50
# [5] = 95% inhibition of bacterial growth, strain IHMA599644
# [6] = 95% inhibition of bacterial growth, strain CL5741
# [7] = 95% inhibition of bacterial growth, strain CLB30005
# [8] = NDM-1 enzyme 1 pM, read-out: NDM1 IC50
# [9] = K. pneumoniae IHMA599644 (VIM-1), 95% inhibition of growth
# [10] = S. marcescens CL5741 (IMP-1), 95% inhibition of growth
# [11] = E. coli CLB30005 (NDM-1), 95% inhibition of growth
# Sequence of NDM-1 (C7C422 29-270, looked up, species assumed): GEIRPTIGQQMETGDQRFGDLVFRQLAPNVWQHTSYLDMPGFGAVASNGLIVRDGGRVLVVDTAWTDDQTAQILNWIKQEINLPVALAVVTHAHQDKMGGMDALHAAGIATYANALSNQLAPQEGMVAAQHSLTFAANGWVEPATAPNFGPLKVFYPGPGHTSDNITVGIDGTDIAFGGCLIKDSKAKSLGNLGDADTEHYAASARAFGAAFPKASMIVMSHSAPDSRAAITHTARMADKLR
# Sequence of IMP-1 (P52699 19-246, looked up, species assumed): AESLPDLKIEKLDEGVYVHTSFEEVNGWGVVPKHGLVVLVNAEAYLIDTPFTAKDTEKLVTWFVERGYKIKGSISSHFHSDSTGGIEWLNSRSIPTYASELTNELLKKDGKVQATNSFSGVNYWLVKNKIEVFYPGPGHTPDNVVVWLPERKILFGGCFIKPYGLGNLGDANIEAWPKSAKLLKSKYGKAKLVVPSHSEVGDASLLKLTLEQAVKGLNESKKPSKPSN
Structure (SMILES),IC50 (IMP-1; enzyme 2 pM) [µM],IC50 (NDM-1; [4]) [µM],IC50 (VIM-1; enzyme 30 pM) [µM],"VIM1 KP599644 MITC95 [1, 5] [µM]","IMP1 SM5741 MITC95 [2, 6] [µM]","NDM1 EC30005 MITC95 [3, 7] [µM]",IC50 (IMP-1; IMP-1 enzyme 2 pM) [µM],IC50 (NDM-1; [8]) [µM],IC50 (VIM-1; VIM-1 enzyme 30 pM) [µM],"VIM1 KP599644 MITC95 [1, 9] [µM]","IMP1 SM5741 MITC95 [2, 10] [µM]","NDM1 EC30005 MITC95 [3, 11] [µM]","IC50 (NDM-1; NDM1 IC50, enzyme 1 pM) [µM]"
"CCC[C@H](C(=O)O)[C@H](Cc1ccc(S(C)(=O)=O)cc1)c1nn[nH]n1 [Example 49, (S)-2-((S)-2-(4-(methylsulfonyl)phenyl)-1-(2H-tetrazol-5-yl)ethyl)pentanoic acid]",0.72,0.069,0.0076,50,37.5,6.2,–,–,–,–,–,–,–
"CCC[C@H](C(=O)O)[C@H](Cc1ccc(-c2c(C)nn(C)c2C)nc1)c1nnn[nH]1 [Example 158, (S)-2-((S)-1-(1H-tetrazol-5-yl)-2-(6-(1,3,5-trimethyl-1H-pyrazol-4-yl)pyridin-3-yl)ethyl)pentanoic acid]",0.061,0.014,0.025,100,12.5,62,–,–,–,–,–,–,–
"CCC[C@H](C(=O)O)[C@H](Cc1ccc(-c2c(C)nn(C)c2C)cc1)c1nnn[nH]1 [Example 235, (2S)-2-{(1S)-1-(1H-tetrazol-5-yl)-2-[4-(1,3,5-trimethyl-1H-pyrazol-4-yl)phenyl]ethyl}pentanoic acid]",0.0058,0.0083,0.0076,>200,0.78,100,–,–,–,–,–,–,–
"CCC[C@H](C(=O)O)[C@H](Cc1ccc(-c2ccc(C(=O)NC)cc2)cc1)c1nn[nH]n1 [Example 202, (2S)-2-[(1S)-2-[4′-(methylcarbamoyl)biphenyl-4-yl]-1-(2H-tetrazol-5-yl)ethyl]pentanoic acid]",0.022,0.0059,0.0023,50,4.7,9.4,–,–,–,–,–,–,–
"CCC[C@H](C(=O)O)[C@H](Cc1ccc(-c2ccc3ncnn3c2)cc1)c1nnn[nH]1 [Example 241, (2S)-2-[(1S)-1-(1H-tetrazol-5-yl)-2-(4-[1,2,4]triazolo[1,5-a]pyridin-6-ylphenyl)ethyl]pentanoic acid]",0.058,0.013,0.00064,38,9.4,75,–,–,–,–,–,–,–
"CCC[C@H](C(=O)O)[C@H](Cc1ccc(C#N)cc1)c1nn[nH]n1 [Example 40, (S)-2-((S)-2-(4-cyanophenyl)-1-(2H-tetrazol-5-yl)ethyl)pentanoic acid]",2.5,0.16,0.0043,25,100,8.3,–,–,–,–,–,–,–
"CCCC[C@@H](C(=O)O)[C@@H](Cc1ccc(-c2ccccc2)cc1)c1nn[nH]n1 [Example 188, (2R)-2-[(1R)-2-biphenyl-4-yl-1-(2H-tetrazol-5-yl)ethyl]hexanoic acid]",0.14,0.64,0.18,>200,53,>200,–,–,–,–,–,–,–
"CCC(C)[C@H](C(=O)O)[C@H](Cc1ccccc1)c1nnn[nH]1 (stereo partly drawn) [Example 19, (2S)-3-methyl-2-((S)-2-phenyl-1-(1H-tetrazol-5-yl)ethyl)pentanoic acid]",0.062,0.031,0.024,50,50,9.4,–,–,–,–,–,–,–
"CCC[C@H](C(=O)O)[C@H](Cc1ccc(Cl)cn1)c1nnn[nH]1 [Example 83, (S)-2-((S)-2-(5-chloropyridin-2-yl)-1-(1H-tetrazol-5-yl)ethyl)pentanoic acid]",> 20,0.88,0.071,100,>200,8.3,–,–,–,–,–,–,–
"CCC[C@H](C(=O)O)[C@H](Cc1ccc(-c2ccc(-c3nnn[nH]3)cc2)cc1)c1nnn[nH]1 [Example 246, (2S)-2-{(1S)-1-(1H-tetrazol-5-yl)-2-[4′-(1H-tetrazol-5-yl)biphenyl-4-yl]ethyl}pentanoic acid]",–,–,–,–,–,–,0.0097,0.0011,0.0022,100,6.2,38,–
"CCC[C@H](C(=O)O)[C@H](Cc1ccc(-c2ccc3c(c2)CNC3)cc1)c1nnn[nH]1 [Example 245, (2S)-2-[(1S)-2-[4-(2,3-dihydro-1H-isoindol-5-yl)phenyl]-1-(1H-tetrazol-5-yl)ethyl]pentanoic acid]",–,–,–,–,–,–,0.085,0.057,0.0037,25,6.2,9.4,–
"O=C(O)[C@@H](CC1CCCC1)[C@H](Cc1ccccc1)c1nnn[nH]1 [Example 10, (2S,3S)-2-(cyclopentylmethyl)-4-phenyl-3-(1H-tetrazol-5-yl)butanoic acid]",0.048,0.047,0.029,150,7.0,50,–,–,–,–,–,–,–
"CCC[C@H](C(=O)O)[C@H](Cc1ccc(C2=CCCN(C)C2)cc1)c1nnn[nH]1 [Example 243, (2S)-2-[(1S)-2-[4-(1-methyl-1,2,5,6-tetrahydropyridin-3-yl)phenyl]-1-(1H-tetrazol-5-yl)ethyl]pentanoic acid]",0.5,0.4,0.0038,25,25,18.8,–,–,–,–,–,–,–
"CCC[C@@H](C(=O)O)[C@H](Cc1ccc(-c2ccc3nnn(C)c3c2)cc1)c1nnn[nH]1 [Example 248, (2R)-2-[(1S)-2-[4-(1-methyl-1H-benzotriazol-6-yl)phenyl]-1-(1H-tetrazol-5-yl)ethyl]pentanoic acid]",–,–,–,–,–,–,4.7,0.7,0.23,>200,>200,100,–
"COCCC[C@H](C(=O)O)[C@H](Cc1ccccc1)c1nnn[nH]1 [Example 9, (2S)-5-methoxy-2-[(1S)-2-phenyl-1-(1H-tetrazol-5-yl)ethyl]pentanoic acid]",0.85,0.097,0.063,200,25,31,–,–,–,–,–,–,–
"CCC[C@H](C(=O)O)[C@H](Cc1ccccc1)c1nnn[nH]1 [Example 4, (S)-2-((S)-2-phenyl-1-(1H-tetrazol-5-yl)ethyl)pentanoic acid]",0.38,0.049,0.014,50,>200,9.4,–,–,–,–,–,–,–
"CCC[C@H](C(=O)O)[C@H](Cc1ccc(C(N)=O)cc1)c1nn[nH]n1 [Example 45, (S)-2-((S)-2-(4-carbamoylphenyl)-1-(2H-tetrazol-5-yl)ethyl)pentanoic acid]",0.85,0.093,0.0033,25,37.5,4.2,–,–,–,–,–,–,–
"CCC[C@H](C(=O)O)[C@H](Cc1ccc(-c2cn(C)c(=O)n(C)c2=O)cc1)c1nn[nH]n1 [Example 212, (2S)-2-[(1S)-2-[4-(1,3-dimethyl-2,4-dioxo-1,2,3,4-tetrahydropyrimidin-5-yl)phenyl]-1-(2H-tetrazol-5-yl)ethyl]pentanoic acid]",0.091,0.031,0.015,150,18.8,18.8,–,–,–,–,–,–,–
"CCC[C@H](C(=O)O)[C@H](Cc1ccc(N2CCNCC2)nc1)c1nnn[nH]1 [Example 145, (S)-2-((S)-2-(6-(piperazin-1-yl)pyridin-3-yl)-1-(1H-tetrazol-5-yl)ethyl)pentanoic acid]",12,–,0.018,75,200,6.2,–,–,–,–,–,–,0.7
"CCCC(C)[C@H](C(=O)O)[C@H](Cc1ccccc1)c1nnn[nH]1 (stereo partly drawn) [Example 18, (2S)-3-methyl-2-((S)-2-phenyl-1-(1H-tetrazol-5-yl)ethyl)hexanoic acid]",0.03,0.026,0.036,200,37.5,18.8,–,–,–,–,–,–,–
